ChEMBL document CHEMBL1201862, “PubChem BioAssay data set” (2004)
The source made the active and inactive calls.

Assays:
[1] = target: T1, DNA repair protein RAD52 homolog (Homo sapiens, UniProt P43351); assay type: functional, biochemical
T1 sequence (P43351 whole entry): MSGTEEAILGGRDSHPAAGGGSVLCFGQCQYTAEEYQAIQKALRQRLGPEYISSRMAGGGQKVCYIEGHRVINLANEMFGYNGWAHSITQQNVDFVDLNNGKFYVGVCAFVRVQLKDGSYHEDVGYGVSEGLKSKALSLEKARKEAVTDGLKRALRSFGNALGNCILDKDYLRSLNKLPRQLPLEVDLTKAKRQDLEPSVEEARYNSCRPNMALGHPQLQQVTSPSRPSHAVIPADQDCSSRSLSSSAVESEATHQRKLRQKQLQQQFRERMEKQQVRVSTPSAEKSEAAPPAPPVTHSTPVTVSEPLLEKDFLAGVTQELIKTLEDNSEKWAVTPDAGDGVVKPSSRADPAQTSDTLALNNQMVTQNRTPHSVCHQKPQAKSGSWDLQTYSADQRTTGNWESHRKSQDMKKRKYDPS

[2] = alpha-synuclein stem-loop luciferase translation blockers – H4 neuroglioma cells, luminescence, confirmation (AID 1988); assay type: functional, cell-based
[3] = luciferase reporter signal suppression in cells – H4 neuroglioma cells, luminescence, dose response (AID 1990); assay type: functional, cell-based
[4] = Luminescence Cell-Based Dose Response HTS to Identify Inhibitors of 5'UTR Stem-Loop Driven Prion Protein mRNA Translation in H4 Neuroglioblastoma Cells. [Related pubchem assays: 1827 (Project Summary), 1813 (Primary HTS)]; assay type: functional
[5] = loss of viability in HepG2 cells – cell-based, CellTiter-Glo, cherry-picked, cytotoxicity control for Shn3 inhibitor project, dose response (AID 624134); assay type: functional
[6] = non-specific 3'UTR reporter inhibition in Clone20-Shn3RL – cell-based, Renilla luciferase, cherry-picked, counter-screen for Shn3 inhibitor project, dose response (AID 624133); assay type: functional
[7] = reduction of Shn3 3'UTR-driven luciferase in osteoblasts – cell-based, Clone20 osteoblasts, firefly luciferase, cherry-picked, dose response (AID 624132); assay type: functional;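 note: firefly luciferase luminescence from reporter carrying the Shn3 3'UTR in osteoblasts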
[8] = tested on: INS1; assay: INS-1E survival protection against cytokine death – cell-based, luminescence, retest, dose response (AID 449756); assay type: functional; settings: Rattus norvegicus;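 note: cell death triggered by IL-1 beta plus TNF-alpha plus IFN-gamma mixture; protective hits raise ATP signal compared with cytokine alone wells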
[9] = microbe, parasite or virus in culture; assay type: functional; settings: Mycobacterium tuberculosis
[10] = tested on: H9c2; assay: cells; assay type: functional, cell-based; settings: Rattus norvegicus, H9c2, Myocardium;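 note: confirmatory concentration-response retest of ultra-high-throughput screening hits for modulation of myocardial damage; cell death induced by hydrogen peroxide oxidative stress; compound pretreatment for 60 min then peroxide exposure for 2 h; potency is for protecting the cells against peroxide damage rather than for killing them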
[11] = tested on: Streptococcus sp. 'group A'; assay: Streptococcus pyogenes SK(-)GAS viability under kanamycin – luminescence, BacTiterGlo, confirmation, counter-screen for streptokinase expression inhibitor project, dose response (AID 1900); assay type: functional, organism-based
[12] = tested on: Vero; assay: cells; assay type: functional; settings: Chlorocebus sabaeus
[13] = tested on: Streptococcus; assay: GAS UMAA2166 growth inhibition – luminescence, BacTiterGlo, counter-screen for streptokinase expression inhibitor project, dose response (AID 1915); assay type: functional, organism-based;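 note: potency for reduction of bacterial viability or growth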
[14] = target: T2, Streptokinase A (Streptococcus pyogenes serotype M1, UniProt P10520); assay: viability-normalized secreted streptokinase activity reduction – plasminogen activation absorbance, OD405, dose response (AID 1914); assay type: functional, Streptococcus pyogenes M1 GAS;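 note: secreted streptokinase activity via plasminogen activation per viability signal from cell pellet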
T2 sequence (P10520 whole entry): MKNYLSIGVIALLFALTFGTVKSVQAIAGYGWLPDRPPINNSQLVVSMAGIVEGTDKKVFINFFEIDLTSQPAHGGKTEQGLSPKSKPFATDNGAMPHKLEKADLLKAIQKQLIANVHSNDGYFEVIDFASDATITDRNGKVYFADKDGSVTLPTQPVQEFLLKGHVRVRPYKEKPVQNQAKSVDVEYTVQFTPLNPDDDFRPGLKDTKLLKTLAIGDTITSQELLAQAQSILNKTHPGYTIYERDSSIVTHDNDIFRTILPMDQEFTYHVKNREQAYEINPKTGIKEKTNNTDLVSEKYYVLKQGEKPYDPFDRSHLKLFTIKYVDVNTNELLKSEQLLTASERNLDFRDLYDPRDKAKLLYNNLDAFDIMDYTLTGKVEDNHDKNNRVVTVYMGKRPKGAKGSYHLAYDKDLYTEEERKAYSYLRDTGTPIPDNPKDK

[15] = target: T3, Zinc finger protein mex-5 (Caenorhabditis elegans, UniProt Q9XUB2); assay: potency of MEX-5 RNA-binding blockers – biochemical, C. elegans, fluorescence polarization, dose response (AID 1960)
T3 sequence (Q9XUB2 whole entry): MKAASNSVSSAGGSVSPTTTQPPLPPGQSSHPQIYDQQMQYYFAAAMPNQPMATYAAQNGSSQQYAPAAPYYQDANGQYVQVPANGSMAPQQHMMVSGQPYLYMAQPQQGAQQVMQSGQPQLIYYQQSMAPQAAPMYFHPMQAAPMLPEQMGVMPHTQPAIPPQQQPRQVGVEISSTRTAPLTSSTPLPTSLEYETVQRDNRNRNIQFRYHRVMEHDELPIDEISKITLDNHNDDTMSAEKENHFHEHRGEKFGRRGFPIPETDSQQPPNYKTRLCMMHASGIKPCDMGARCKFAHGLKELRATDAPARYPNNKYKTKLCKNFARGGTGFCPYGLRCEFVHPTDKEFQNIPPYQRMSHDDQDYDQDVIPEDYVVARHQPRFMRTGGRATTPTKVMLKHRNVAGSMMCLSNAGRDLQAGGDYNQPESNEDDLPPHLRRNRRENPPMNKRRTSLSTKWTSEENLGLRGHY

[16] = target: T4, RNA-binding protein pos-1 (Caenorhabditis elegans, UniProt G5EF15); assay: disruptors of C. elegans POS-1 RNA interaction – biochemical, fluorescence polarization, dose response (AID 1964);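 note: purified POS-1 fused to maltose binding protein made in E. coli; potency of compounds blocking POS-1 binding to fluorescent RNA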
T4 sequence (G5EF15 whole entry): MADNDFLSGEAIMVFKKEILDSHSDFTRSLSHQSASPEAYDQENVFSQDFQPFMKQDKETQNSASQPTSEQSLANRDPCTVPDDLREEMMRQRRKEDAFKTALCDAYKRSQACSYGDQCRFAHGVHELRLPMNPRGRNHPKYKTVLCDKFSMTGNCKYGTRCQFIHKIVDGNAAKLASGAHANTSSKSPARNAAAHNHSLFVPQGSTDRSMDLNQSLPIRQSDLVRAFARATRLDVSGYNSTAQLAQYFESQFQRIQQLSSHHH

[17] = target: T5, Calpain-2 catalytic subunit (Sus scrofa, UniProt P43367); assay: m-calpain protease blockers, concentration series – biochemical, fluorogenic peptide substrate, dose response (AID 1420); assay type: functional
T5 sequence (P43367 whole entry): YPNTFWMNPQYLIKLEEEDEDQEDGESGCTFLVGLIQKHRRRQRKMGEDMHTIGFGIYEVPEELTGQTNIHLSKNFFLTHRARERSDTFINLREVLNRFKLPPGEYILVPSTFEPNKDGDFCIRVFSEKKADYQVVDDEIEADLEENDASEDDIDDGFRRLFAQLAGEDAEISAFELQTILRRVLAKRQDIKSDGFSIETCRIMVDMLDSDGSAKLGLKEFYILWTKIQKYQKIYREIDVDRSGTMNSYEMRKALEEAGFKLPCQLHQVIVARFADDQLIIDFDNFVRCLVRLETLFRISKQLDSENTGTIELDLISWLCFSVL

## Cc1ccc2c(c1)c1c3n2CCN(CC(O)CNC(C)C)C3CCC1 (stereo not given)
[1]
  AC50: 15.8 µM (active)

## COc1ccc2nc(NCCN=C(S)NCCCN3CCOCC3)c(C#N)cc2c1
[1]
  AC50: 9.87 µM (active)

## Cc1ccc(NC(CNS(=O)(=O)c2ccc(Cl)cc2)c2ccccc2)cc1 (stereo not given)
[2]
  EC50: 10.3 µM (active)
[3]
  EC50: > 120 µM (not active)
[4]
  EC50: 45.4 µM (active)

## Cc1c(C(=O)Nc2ccc(F)c(F)c2)oc2ccc(S(=O)(=O)N3CCCCC3)cc12
[5]
  AC50: > 70 µM (inactive)
[6]
  AC50: 28 µM (active)
[7]
  AC50: 7.05 µM (active)

## CCOc1ccc(NC(=S)N2CCC(NC(=O)c3ccccc3C)CC2)cc1
[2]
  EC50: > 120 µM (not active)
[3]
  EC50: > 120 µM (not active)
[4]
  EC50: > 120 µM (not active)

## COc1ccccc1-c1nnc(NC(=O)c2ccc(S(=O)(=O)N(C)C)cc2)o1
[2]
  EC50: > 120 µM (not active)
[3]
  EC50: > 120 µM (not active)
[4]
  EC50: > 120 µM (not active)

## CCOc1ccc(S(=O)(=O)N(C)c2ccc(OCC(=O)Nc3nc4ccccc4s3)cc2)cc1
[5]
  AC50: 34.6 µM (active)
[8]
  AC50: 7.73 µM (active)
[6]
  AC50: 4.06 µM (active)
[7]
  AC50: 2.82 µM (active)

## O=C(Nc1ccc(N2CCOCC2)c(Cl)c1)c1c(F)c(F)c(F)c(F)c1F
[9]
  CC50: > 40 µM (active)

## CC(C)(C)c1ccc(OCC(=O)Nc2ccc3c4c(cccc24)C(=O)NC3=O)cc1
[10]
  IC50: 20.9 µM (active)
[2]
  EC50: > 120 µM (not active)
[3]
  EC50: > 120 µM (not active)
[4]
  EC50: 10.8 µM (active)

## C=CCn1c(SCc2ccc(C#N)cc2)nnc1-c1cccc(OC)c1
[2]
  EC50: > 120 µM (not active)
[3]
  EC50: 18.6 µM (active)
[4]
  EC50: 48.7 µM (active)

## CCN1C(=O)/C(=C/c2c[nH]nc2-c2ccccc2)SC1=S
[2]
  EC50: > 120 µM (not active)
[3]
  EC50: > 120 µM (not active)
[4]
  EC50: > 120 µM (not active)

## O=C1c2ccc3c4c(ccc(c24)C(=O)N1c1cccc(O)c1)C(=O)N(c1cccc(O)c1)C3=O
[8]
  AC50: 0.848 µM (active)
[2]
  EC50: 15.1 µM (active)
[11]
  EC50: 1.22 µM (active)
[12]
  CC50: > 25 µM (active)
[3]
  EC50: 17.1 µM (active)
[4]
  EC50: 85.7 µM (active)
[13]
  EC50: 1.29 µM (active)
[14]
  EC50: > 150 µM (not active)

## CC(C)N1CCc2c(sc(NC(=O)c3ccc4ccccc4c3)c2C(N)=O)C1
[15]
  EC50: > 300 µM (inconclusive)
[12]
  CC50: > 25 µM (active)
[16]
  EC50: > 300 µM (not active)

## Cc1ccc(SCCN=C(S)Nc2cc(C)cc(C)c2)cc1
[17]
  IC50: 6.82 µM (not active)

## CCCSc1nn2c(=O)c3ccccc3nc2s1
[9]
  CC50: > 40 µM (active)

## CCCCN(CCCC)c1nc(-c2ccncc2)nc2ccccc12
[9]
  CC50: 29.3 µM (active)
[11]
  EC50: 5.38 µM (active)
[13]
  EC50: 8.44 µM (active)
